From PMC11401813, “Grewiifopenes A–K, bioactive clerodane diterpenoids from Casearia grewiifolia Vent” (Natural Products and Bioprospecting, 2024)
In brackets after ≈: the same amount, converted by molar mass. Like-named read-outs stand apart in the source and are kept apart here.

What was measured:
[1] = test system: MDA-MB-231 (triple negative breast cancer); test: Cytotoxicity, MTT assay, MDA-MB-231; type: cell-based, human
Protocol: (§1) The in vitro cytotoxicity assay toward a panel of human cancer cell lines of several clerodane diterpenoids has been well investigated. Thus, the isolates in adequate amounts were tested against MOLT-3 (acute lymphoblastic leukemia), HuCCA-1 (cholangiocarcinoma), HepG2 (hepatocellular carcinoma), A549 (lung adenocarcinoma), HeLa (cervical carcinoma), and MDA-MB-231 (triple negative breast cancer) cancer cell lines using the MTT and XTT methods. Doxorubicin and etoposide were used as positive controls.
(§2) The MTT (3-(4,5-dimethylthiazol-2-yl)-2,5-diphenyltetrazolium bromide) assay was employed for the cytotoxic evaluation against five human cancer cell lines, including HepG2, A549, MDA-MB-231, HeLa, and HuCCA-1, while the XTT (2,3-bis-(2-methoxy-4-nitro-5-sulphenyl)-(2H)-tetrazolium-5-carboxanilide) method was used for MOLT-3 cancer cell.

[2] = test system: HeLa (cervical carcinoma); test: Cytotoxicity, MTT assay, HeLa; type: cell-based, human; details: Homo sapiens, HeLa, read-out: IC50, HeLa
Protocol: as §1, §2

aromatase (CYP19) = target: T1, aromatase (CYP19) (Homo sapiens, UniProt P11511); test: Aromatase (CYP19) inhibition assay; type: biochemical; details: for inhibition at 12.5 µM: at a concentration of 12.5 µM; for Aromatase inhibitory activity (in words): at the concentration up to 12.15 µM
T1 construct: purchased
T1 sequence (P11511 1-503): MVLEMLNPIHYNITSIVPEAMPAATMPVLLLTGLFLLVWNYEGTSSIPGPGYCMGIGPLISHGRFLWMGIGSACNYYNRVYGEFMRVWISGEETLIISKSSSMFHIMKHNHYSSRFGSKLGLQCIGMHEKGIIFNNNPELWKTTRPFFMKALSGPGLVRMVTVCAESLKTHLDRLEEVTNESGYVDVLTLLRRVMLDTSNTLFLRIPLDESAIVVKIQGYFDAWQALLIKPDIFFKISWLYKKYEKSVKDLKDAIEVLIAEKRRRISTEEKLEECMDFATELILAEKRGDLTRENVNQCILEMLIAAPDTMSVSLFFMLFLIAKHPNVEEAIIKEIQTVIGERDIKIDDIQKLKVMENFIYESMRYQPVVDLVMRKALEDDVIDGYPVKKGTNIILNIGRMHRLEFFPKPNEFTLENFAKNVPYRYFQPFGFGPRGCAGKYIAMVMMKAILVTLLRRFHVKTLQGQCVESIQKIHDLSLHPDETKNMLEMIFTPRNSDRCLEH
Protocol: (§3) In addition, the isolates were also evaluated for their antibacterial activity towards three strains including Bacillus cereus (ATCC 11778), Staphylococcus aureus (ATCC 6538) and Staphylococcus epidermidis (ATCC 12228) using penicillin G and gentamicin as the antibiotic controls (Table 5). […] Finally, the inhibitory activity of aromatase by using a CYP19 screening kit was investigated. The aromatase (also called estrogen synthase) is responsible for converting the non-aromatic ring A of androgens to estrogens, which are related to the proliferation of breast cancer cells.
The aromatase assay used a method previously designed by Stresser and co-workers.

[3] = test system: MOLT-3 (acute lymphoblastic leukemia); test: Cytotoxicity, XTT method, MOLT-3; type: cell-based; details: Homo sapiens
Protocol: as §1, §2

[4] = test system: A549 (lung adenocarcinoma); test: Cytotoxicity, MTT assay, A549; type: cell-based, human; details: Homo sapiens, A549, A549 cell line, mean ± s.d. (n = 3)
Protocol: as §1, §2

[5] = test system: Bacillus cereus (ATCC 11778); test: Antibacterial broth microdilution (MIC/MBC), B. cereus; type: cell-based; details: for MBC / MIC: Bacillus cereus, ATCC11778
Protocol: as §3
(§4) The tested strains, Staphylococcus aureus (S. aureus) ATCC6538, Staphylococcus epidermidis (S. epidermidis) ATCC12228, and Bacillus cereus (B. cereus) ATCC11778 were obtained from the American Type Culture Collection (ATCC).
(§5) All tested species were grown on Mueller Hinton Agar (MHA) and incubated at 37 °C for 18–24 h. The bacterial colonies suspension in sterile normal saline was diluted until they reached a 1 × 10^6 CFC/mL concentration, which was then compared to the McFarland scale. This step provided a standard bacterial suspension (1 × 10^6 CFU/mL), which was used for the following assays.
(§6) The broth microdilution technique was used for the MIC and MBC determination, which was expressed according to Clinical and Laboratory Standards Institute (CLSI) standard M07 guideline. The compounds were prepared as a stock solution by dissolving in dimethyl sulfoxide (DMSO) with the concentration ranging from 0.195 to 200 µg/mL. DMSO and penicillin G or gentamicin were used as normal and standard drug control. […] Three replicates were performed for each experiment.

[6] = test system: Staphylococcus epidermidis (ATCC 12228); test: Antibacterial broth microdilution (MIC/MBC), S. epidermidis; type: cell-based; details: ATCC12228
Protocol: as §3, §4, §5, §6

[7] = test system: HuCCA-1 (cholangiocarcinoma); test: Cytotoxicity, MTT assay, HuCCA-1; type: cell-based, human; details: Homo sapiens
Protocol: as §1, §2

[8] = test system: HepG2 (hepatocellular carcinoma); test: Cytotoxicity, MTT assay, HepG2; type: cell-based, human; details: Homo sapiens
Protocol: as §1, §2

[9] = test system: Staphylococcus aureus (ATCC 6538); test: Antibacterial broth microdilution (MIC/MBC), S. aureus; type: cell-based; details: ATCC6538
Protocol: as §3, §4, §5, §6

[10] = test system: MOLT-3, HuCCA-1, HepG2, A549, HeLa, and MDA-MB-231 cancer cell lines; test: Cytotoxicity toward panel of human cancer cell lines (MTT and XTT); type: cell-based; details: Homo sapiens, read-out: IC50 range over the cancer cell line panel
From the text: The in vitro cytotoxicity assay toward a panel of human cancer cell lines of several clerodane diterpenoids has been well investigated. […] Doxorubicin and etoposide were used as positive controls.

[11] = Homo sapiens, MDA-MB-231, MDA-MB-231 cell line, MTT, mean ± s.d. (n = 3), read-out: IC50, MDA-MB-231
[12] = HeLa cell line, MTT, mean ± s.d. (n = 3)
[13] = MOLT-3 cell line, XTT, mean ± s.d. (n = 3), read-out: IC50, MOLT-3
[14] = HuCC-A1, HuCCA-1 cell line, MTT, mean ± s.d. (n = 3), read-out: IC50, HuCCA-1
[15] = HepG2, HepG2 cell line, MTT, mean ± s.d. (n = 3), read-out: IC50, HepG2
[16] = MDA-MB-231 cell line, MTT, mean ± s.d. (n = 3), read-out: IC50, MDA-MB-231
[17] = range over all cell lines tested

| Compound | IC50 [1, 11] [µM] | IC50 [2, 12] [µM] | inhibition at 12.5 µM (aromatase (CYP19)) [%] | Aromatase inhibitory activity (in words) (aromatase (CYP19)) | IC50 [3, 13] [nM] | IC50 [4] [µM] | MBC [5] [µg/mL] | MIC [5] [µg/mL] | MBC [6] [µg/mL] | MIC [6] [µg/mL] | IC50 [7, 14] [µM] | IC50 [8, 15] [µM] | MBC [9] [µg/mL] | MIC [9] [µg/mL] | also measured |
| --- | --- | --- | --- | --- | --- | --- | --- | --- | --- | --- | --- | --- | --- | --- | --- |
| C=CC(=C)CC[C@]1(C)[C@H](C)[C@@H](OC(C)=O)[C@H](OC(C)=O)[C@@]23C(=C[C@H](OC(=O)CC(C)C)C[C@@H]12)[C@@H](OC(C)=O)O[C@H]3OC(C)=O [Compound 3, Grewiifopene C] | 8.4 ± 0.1 | 5.3 ± 0.1 | 15 | did not show activity | 2700 ± 300 | 5.1 ± 1.1 | > 200 | > 200 | > 200 | > 200 | 3.9 ± 0.2 | 13.2 ± 0.5 | > 200 | > 200 |  |
| C=CC(=C)CC[C@]1(C)[C@H](C)C[C@H](O)[C@@]23C(=C[C@H](OC(=O)[C@@H](C)CC)C[C@@H]12)[C@@H](OC(C)=O)O[C@H]3OC(C)=O [Compound 7, isocaseamembrin E] | 2 to 2.2 | 0.9 ± 0.1 | 0 | did not show activity | 1400 ± 200 | 0.3 ± 0.02 | > 200 | 6.25 (≈ 12.1 µM) | > 200 | 100 (≈ 193 µM) | 0.7 ± 0.1 | 1.9 ± 0.4 | 50 (≈ 96.4 µM) | 25 (≈ 48.2 µM) | IC50 [1, 16]: 2 ± 0.2 µM; IC50 [10, 17]: 300 to 2900 nM |
| C=CC(=C)CC[C@]1(C)[C@H](C)C[C@H](O)[C@@]23C(=C[C@H](OC(=O)CC(C)C)C[C@@H]12)[C@@H](OC(C)=O)O[C@H]3OC(C)=O [Compound 8, corymbulosin X] | 2 to 2.2 | 1.8 ± 0.2 |  |  | 1200 ± 200 | 0.6 ± 0.1 | 50 (≈ 96.4 µM) | 25 (≈ 48.2 µM) | > 200 | > 200 | 0.4 ± 0.1 | 2.4 ± 0.1 | > 200 | > 200 | IC50 [1, 16]: 2.2 ± 0.1 µM; IC50 [10, 17]: 300 to 2900 nM |
| C=CC(=C)CC[C@]1(C)[C@H]2C[C@H](OC(=O)CC(C)C)C=C3[C@H](OC(C)=O)O[C@H](OC(C)=O)[C@@]32[C@H](OC)C[C@@H]1C [Compound 9, caseargrewiin A] | 8.1 ± 0.4 | 5.2 ± 0.1 | 31 | did not show activity | 3000 ± 200 | 5 ± 0.5 | 100 (≈ 188 µM) | 100 (≈ 188 µM) | > 200 | > 200 | 5.2 ± 0.4 | 9.5 ± 0.8 | > 200 | > 200 |  |
| C=CC(=C)CC[C@]1(C)[C@H](C)C[C@H](OC)[C@@]23C(=C[C@H](OC(=O)[C@@H](C)CC)C[C@@H]12)[C@@H](OC)O[C@H]3OC(C)=O [Compound 11, balanspene F] | 11.4 ± 0.5 | 10.3 ± 0.5 | 25 | did not show activity | 5000 ± 1700 | 3 ± 0.4 | 25 (≈ 49.5 µM) | 12.5 (≈ 24.8 µM) | > 200 | > 200 | 3.3 ± 0.4 | 14.3 ± 1.5 | > 200 | > 200 | MBC, B. cereus (ATCC 11778) [5]: 25 µg/mL (≈ 49.5 µM) |
| C=CC(=C)CC[C@]1(C)[C@H](C)[C@@H](OC(=O)CC(C)C)[C@H](O)[C@@]23C(=C[C@H](OC(=O)CC(C)C)C[C@@H]12)[C@@H](OC(C)=O)O[C@H]3OC(C)=O [Compound 12, Grewiifopene E] | 7.6 ± 0.9 | 3.8 ± 0.6 | 0 | did not show activity | 1700 ± 400 | 3.6 ± 0.04 |  |  |  |  | 4.4 ± 0.4 | 8.9 ± 0.3 |  |  |  |
| C=CC(C)=CCC1(C)C(C)CC(O)C23C(=CC(OC(=O)C(C)CC)CC12)C(OC(C)=O)OC3OC(C)=O (centres unmarked) [Compound 16, Grewiifopene I] |  |  |  |  |  |  |  |  |  |  |  |  |  |  | IC50 ([1]; Homo sapiens, MDA-MB-231, read-out: IC50, MDA-MB-231): 2 ± 0.1 µM; IC50 [2]: 0.8 ± 0.1 µM; IC50 [10]: 300 to 2900 nM; IC50 ([3]; MOLT-3, read-out: IC50, MOLT-3): 1200 ± 200 nM; IC50 ([7]; HuCC-A1, read-out: IC50, HuCCA-1): 0.7 ± 0.02 µM; IC50 ([8]; HepG2, read-out: IC50, HepG2): 2.9 µM |
| COC1=CC(=O)C=C(OC)C1(O)CC(C)=O [Compound 20, 4-acetonyl-3,5-dimethoxy-p-quinol] | 24.4 ± 1.2 | 132 ± 3.8 | 0 | did not show activity | 10000 ± 3500 | 125 ± 4.7 | > 200 | > 200 | > 200 | > 200 | 111 ± 2.2 | 122 ± 11.3 | > 200 | > 200 |  |
